This test deals with T1, Aryl-hydrocarbon-interacting protein-like 1 (Homo sapiens, UniProt Q9NZN9).
T1 sequence (Q9NZN9 whole entry): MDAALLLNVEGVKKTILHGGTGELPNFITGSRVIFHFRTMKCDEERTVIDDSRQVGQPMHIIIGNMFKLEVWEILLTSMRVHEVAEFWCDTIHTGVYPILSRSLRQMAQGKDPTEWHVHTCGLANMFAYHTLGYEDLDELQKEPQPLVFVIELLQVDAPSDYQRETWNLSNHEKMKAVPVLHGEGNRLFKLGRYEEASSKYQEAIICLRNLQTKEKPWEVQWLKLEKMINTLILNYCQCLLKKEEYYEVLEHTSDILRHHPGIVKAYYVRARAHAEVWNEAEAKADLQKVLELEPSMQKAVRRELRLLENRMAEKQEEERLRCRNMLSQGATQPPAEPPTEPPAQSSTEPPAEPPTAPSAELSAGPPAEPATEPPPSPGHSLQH
The test can be described thus: Inhibition of GST-tagged human AIPL1 expressed in Escherichia coli BL21 (DE3) using NH2-EDASRMEEVD-COOH peptide as substrate preincubated for 15 mins followed by substrate addition measured after 15 mins by Alpha Screen assay. On the technique in general: Alpha assays give light when donor and acceptor beads are brought close together.

pIC50: −log10 of the molar value.

Regarding `Cc1sc(NC(=O)CCCC(=O)Nc2sc(C)c(C)c2C(N)=O)c(C(N)=O)c1C`, the pIC50 was 5.70.

One may read the pIC50 as the negative decadic logarithm of the IC50, by convention in mol/L. A low value points to a large IC50.

Source of the values: ChEMBL document CHEMBL5523701, “Structure-based discovery of small molecule inhibitors of FKBP51-Hsp90 protein-protein interaction” (Eur J Med Chem, 2024).
